Experimental data taken from patent US9416348B2, “Hepatocyte-like cells and uses thereof” (priority 2010, dated 2016).

Tested on: iHep cells
Assay: CYP metabolism assay, iHep cells incubated with substrate, metabolite by LC-MS/MS
Details: for 4′-OH-Diclotenac: mouse, 3 h
Procedure: To determine Alb secretion, TTFs transduced with three factors were cultured in the medium without phenol red. Culture supernatant was collected 24 h after medium change. The amount of Alb in the supernatant was determined by the mouse albumin ELISA kit (BETHYL LABORATORY) according to the manufacturer's instructions. […] The supernatants were collected for measurement of indicated productions by LC-MS/MS (AGILENT 1200 HPLC and ABI 4000 mass-spectrometer). Freshly isolated hepatocytes were used as a positive control. Total cell protein amount was used to normalize the data.
Metabolites of these chemicals were measured by liquid chromatography-tandem mass spectrometry (LC/MS/MS) according to each standard curve.

SMILES | 4′-OH-Diclotenac (12.5 μM) | 4′-OH-Diclotenac (25 μM) | 4′-OH-Diclotenac (50 μM) | 4′-OH-Diclotenac (100 μM) | metabolism by iHep cells (iHep cells, P<0.05)
O=C(O)Cc1ccccc1Nc1c(Cl)cccc1Cl [Diclofenac, diclofenac] | 0.0 pmol/min/mg protein | 17.0 ± 8.0 pmol/min/mg protein | 195.4 ± 16.0 pmol/min/mg protein | 483.3 ± 60.1 pmol/min/mg protein | 
C[C@]12CC[C@H]3[C@@H](CCC4=CC(=O)CC[C@@]43C)[C@@H]1CC[C@@H]2O [Testosterone, testosterone] |  |  |  |  | metabolized
